Test results from patent US20180353461A1, “USE OF CANNABINOIDS AS CERAMIDE-GENERATING ANTICANCER AGENTS IN TUMORS OF THE HEMATOPOIETIC AND LYMPHOID TISSUES” (priority 2014, published 2018).

Assays:
U266 cells = assay: Western blot of signaling pathways (MAPKs, Akt) in U266 cells; type: cell-based, human
Procedure: Protein analyses were performed by Western blot in several sets of assays: expression pattern of CBs-receptors in MM cell lines and primary cells, and time course after treatment with cannabinoids in MM cell lines. Time-course assays were performed at 0, 2, 6, 18 and 24 hours. Anyway, obtaining cell lysates was conducted according to a protocol adapted to phosphorylation-dependent signaling, described by Gilbert et al. (2002). Briefly, 10e7 cells per condition were harvested at indicated times, washed with iced-cold PBS and lysate in isotonic lysis buffer 30 min keeping on ice. Isotonic lysis buffer contained 2% ASB-14 (CalbioChem, San Diego, Calif., USA),1% Nonidet P-40 (Ipegal®), 137 mM NaCl, 20mM Tris-HCl pH 7.5 at 4° C. (all from Sigma-Aldrich), 2 mM Na3VO4, 20 mM NaF (New England BioLabs Inc., Ipswich, Mass., USA), 2 mM DTT (AppliChem, Darmstadt, Germany), protease inhibitor cocktail (Roche Diagnostics GmbH, Mannheim, Germany), and 10 ul Nuclease Mix (Amersham GE Healthcare, Uppsala, Sweden). After lysis, samples were centrifuged at 13,000×g for 5 min at 4° C., and supernatants collected. Protein concentration in samples was determined by Pierce® Microplate BCA Protein Assay kit-Reducing Agent Compatible (Thermo Fisher Scientific). Before loading the samples in the gel, they were diluted in loading sample buffer (0.125 M Tris-HCl pH 6.8, 4% SDS, 20% glycerol, 0.02% Bromophenol Blue, 200 mM DTT) and the mixture was heated at 70° C. for 5 min in a thermoblock (LabNet International, N.J., USA).
Samples (15-25 ug/lane) were subjected to SDS/PAGE in pre-cast polyacrylamide gels AnykD (Bio-Rad Laboratories, Hercules, CA, USA) under reducing and denaturing conditions. Electrophoretic run was performed at a constant current of 15 mA per gel in a Mini-Protean® Tetra Cell (Bio-Rad Laboratories). Once proteins were separated by electrophoresis, were transferred onto PVDF membranes using Trans-Blot® Turbo™ System (Bio-Rad Laboratories). Electrotransference was conducted at constant amperage of 1.2 mA and at up to 25 V of voltage. The blotted membranes were then blocked with 2% bovine serum albumin [(BSA), Santa Cruz Biotechnology] in Tween-Tris buffer saline (TTBS) for 30 min with gentle agitation, and incubated overnight at 4° C. with corresponding primary antibody in TTBS. After twice washing with TTBS, membranes were incubated for 1-2 h at room temperature with suitable conjugated-HRP secondary antibody, and subjected to chemiluminescence detection using Western Blotting Luminol Reagent (Santa Cruz Biotechnology). Loading controls were carried out with an anti-beta-actin and anti-beta-tubulin antibodies (Sigma-Aldrich). Blots were captured using a digital imaging system ImageQuant LAS 4000 (Amersham GE Healthcare) and transferred to a digital image processing software to analyze (Adobe Photoshop CS2, version 9.0., Adobe Systems Inc., San Jose, Calif.).
Signaling pathways targeted by cannabinoids in myelomatous cells. To get further insights into the mechanisms of cannabinoids-induced apoptosis, we assessed the expression profile of phosphorylated-JNK, -Erk1/2, -p38 MAPK and -Akt by Western blot.

HL60 cells = assay: Western blot time course of apoptotic proteins in HL60 cells; type: cell-based, human
Procedure: Protein analyses were performed by Western blot in several sets of assays: expression pattern of CBs-receptors in AML cell lines and primary cells, and time course after treatment with cannabinoids in AML cell lines.
Cells were solubilized with ice-cold lysis buffer containing 2% ASB-14 (CalbioChem, San Diego, Calif., USA), 1% Nonidet P-40 (Ipegal®), 137 mM NaCl, 20 mM Tris-HCl pH 7.5 at 4° C. (all from Sigma-Aldrich), 2 mM Na3VO4, 20 mM NaF (New England BioLabs Inc., Ipswich, Mass., USA), 2 mM DTT (AppliChem, Darmstadt, Germany), protease inhibitor cocktail (Roche Diagnostics GmbH, Mannheim, Germany), and 10 ul Nuclease Mix (Amersham GE Healthcare, Uppsala, Sweden). Insoluble materials were removed by centrifugation at 13,000×g for 15 min at 4° C. Protein content was determined by Pierce® Microplate BCA Protein Assay kit-Reducing Agent Compatible (Thermo Fisher Scientific).
Extracted proteins (15-25 ug/well) were separated by sodium dodecyl sulfate-polyacrylamide gel electrophoresis (SDS/PAGE) in pre-cast polyacrylamide gels AnykD (Bio-Rad Laboratories, Hercules, Calif., USA) under reducing and denaturing conditions. Electrophoretic run was performed at a constant current of 15 mA per gel in a Mini-Protean® Tetra Cell (Bio-Rad Laboratories) and were electrophoretically transferred onto PVDF membranes using Trans-Blot® Turbo™ System (Bio-Rad Laboratories). Blocking was performed with 2% bovine serum albumin [(BSA), Santa Cruz Biotechnology] in Tween-Tris buffer saline (TTBS). Membranes were incubated overnight at 4° C. with corresponding primary antibody in TTBS.
Detection was performed using Western Blotting Luminol Reagent (Santa Cruz Biotechnology).
As in the case of MM cells, the antiproliferative effect of cannabinoids in AML is mediated by apoptotic mechanisms. […] Next, we evaluated Casp-3 activation using an antibody that recognizes the active forms of Casp-3, this is, the […]. […]

`CS(=O)(=O)O.Cc1c(C(=O)c2cccc3ccccc23)c2cccc3c2n1[C@H](CN1CCOCC1)CO3` [WIN-55, (R)-(+)-[2,3-dihydro-5-methyl-3-(4-morpholinylmethyl)-pyrrolo-[1,2,3]-1,4-benzoxazin-6-yl]-1-naphthalenylmethanone mesylate] was tested, and the “p-Akt at early time points” value (U266 cells; U266) was “significant up-regulation”, the “p-Akt expression levels at later times” value (U266 cells; U266) was “sharp decline” and the “total Akt-expression, first 6 hours of exposure” value (U266 cells; U266) was “remained unchanged”. The p-JNK (U266 cells; U266, WIN-55 50 uM) was “slightly up-regulated”, the “up-regulation of p-Erk1/2, compared with the slight up-regulation of p-JNK” value (U266 cells; U266, WIN-55 50 uM) was “to a lesser extent” and the “p-p38 MAPK” value (U266 cells; U266, time-dependent) was “moderately downregulated”. The “full-length PARP” value (HL60 cells; HL60, WIN-55 50 uM, time course) was “decrease”, the “85 kDa fragment of PARP” value (HL60 cells; HL60, time course) was “increase” and the “expression of the active 12 kDa-cleaved form of Casp-3” value (HL60 cells; HL60, time course) was “increased over time”.
